Reference: patent publication US8624034B2, “Fluoro-pyridinone derivatives useful as antibacterial agents” (Pfizer Inc., priority 2011, dated 2014)
pIC50: −log10 of the molar value. ≈ marks a conversion by molar mass, not a printed value. Like-named read-outs stand apart in the source and are kept apart here.

Experiments:
[1] = test system: Acinetobacter baumannii/haemolyticus, multidrug-resistant clinical isolate (AB-3167); experiment: MIC determination, AB-3167; format: cell-based; conditions: Table 3, lower of duplicate values
Description: (§1) The in vitro antibacterial activity of compounds described in the Examples was evaluated by minimum inhibitory concentration (MIC) testing according to Clinical and Laboratory Standards Institute (CLSI). See: Clinical and Laboratory Standards Institute. Methods for Dilution Antimicrobial Susceptibility Tests for Bacteria that Grow Aerobically; Approved Standard-Eighth Edition. CLSI document M7-A8 [ISBN 1-56238-689-1]. Clinical and Laboratory Standards Institute, 940 West Valley Road, Suite 1400, Wayne, Pa. 19087-1898 USA, 2006; also Clinical and Laboratory Standards Institute. Performance Standards for Antimicrobial Susceptibility Testing; Twentieth Informational Supplement. CLSI document M100-S20 [ISBN 1-56238-716-2]. Clinical and Laboratory Standards Institute.
(§2) The MIC determination is a standard laboratory method for evaluating the antibacterial activity of a compound. The MIC represents the lowest drug concentration that inhibits visible growth of bacteria following overnight incubation. […] Typically, the drug concentration range is broken down into 2-fold increments (e.g. 0.06 μg/mL, 0.12 μg/mL. 0.25 μg/mL, 0.50 μg/mL, 1.0 μg/mL, etc.) and the various drug concentrations are all individually incubated overnight with approximately the same number of bacteria. The MIC is then determined by visually inspecting the drug effect at each concentration, and identifying the lowest drug concentration that has inhibited bacterial growth as compared to the drug free control. Typically, bacteria continue to grow at drug concentrations lower than the MIC and don't grow at concentrations at and above the MIC.
(§3) The MIC values described in Table 2 and 3 below were derived from assays wherein each test compound was evaluated in duplicate. In cases where the duplicate values varied by 0-2-fold, the lower of the two values was reported below. Generally speaking, if the duplicate values varied by more than 2-fold, the assay was considered non-valid and was repeated until the variation between duplicate runs was ≦2-fold. In line with the CLSI guidelines referred to above, both control organisms and reference compounds were utilized in each MIC assay to provide proper quality control. MIC values generated with these control organisms and reference compounds were required to fall within a defined range for the assay to be considered valid and be included herein. Those skilled in the art will recognize that MIC values can and do vary from experiment to experiment. Generally speaking, it should be recognized that MIC values often vary +/−2-fold from experiment to experiment. While a single MIC is reported for each compound and each microorganism, the reader should not conclude that each compound was only tested once. Several of the compounds were subjected to multiple tests. The data reported in Tables 2 and 3 is reflective of the compounds relative activity and different MICs may have been generated on these occasions in line with the guidelines described above.
(§4) The following bacterial strains were used in these MIC determinations:
2) Acinetobacter baumannii/haemolyticus: Multidrug-resistant clinical isolate labeled as AB-3167 in Tables 2 and 3;

[2] = test system: PA:UC12120; experiment: MIC determination, PA:UC12120 (Table 3); format: cell-based, Pseudomonas aeruginosa; conditions: Pseudomonas aeruginosa, UC12120, Table 3, lower of duplicate values
Description: as §1, §2, §3
In Table 3 below, column 1 corresponds to the Example number, column 2 provides the IUPAC name, columns 3-6 provide in vitro biological data generated in the same manner as in Table 2, columns 7 and 8 provide the retention times and mass spectra generated via LCMS, using the method described below. All data is not currently available for all compounds, as indicated by a blank cell in Table 3.

[3] = test system: Escherichia coli EC-1: VOGEL, mouse virulent; experiment: MIC determination, EC-1; format: cell-based; conditions: Escherichia coli, read-out: EC-1 (MIC), Table 3, lower of duplicate values
Description: as §1, §2, §3, §4
3) Escherichia coli EC-1: VOGEL, mouse virulent labeled as EC-1 in Tables 2 and 3;

[4] = target: T1, Pseudomonas aeruginosa LpxC enzyme (Pseudomonas aeruginosa, UniProt P47205); experiment: IC50 assay, LpxC enzyme from P. aeruginosa (PA LpxC enzyme IC50); format: biochemical; conditions: LpxC enzyme 0.1 nM, 25° C., 1 hour
T1 construct: made in house; host or cells: E. coli
T1 sequence (P47205 1-303): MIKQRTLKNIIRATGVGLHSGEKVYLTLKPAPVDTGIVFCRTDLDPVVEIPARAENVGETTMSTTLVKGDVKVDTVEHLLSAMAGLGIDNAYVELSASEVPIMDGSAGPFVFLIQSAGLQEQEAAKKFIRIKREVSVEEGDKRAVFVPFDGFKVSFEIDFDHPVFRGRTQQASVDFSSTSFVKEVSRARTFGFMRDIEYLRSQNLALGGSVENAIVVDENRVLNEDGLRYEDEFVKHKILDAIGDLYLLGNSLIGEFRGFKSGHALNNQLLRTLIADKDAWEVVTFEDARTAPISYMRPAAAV
Description: In order to assess the compounds biological activity, selected in vitro assays were conducted on selected compounds. One of the assays measured the compounds ability to disrupt the synthesis of lipopolysaccharide, LPS, which is a component of the outer membrane of Gram-negative bacteria. Disruption of this synthesis is lethal to the bacteria. The assay determined the compound's ability to inhibit LpxC, which is the first enzyme in the biosynthetic pathway for LPS (measured as IC50). Additionally, MICs (minimal inhibitory concentrations) were determined for several bacteria. The specific protocols are described below:
A) IC50 Assay, LpxC Enzyme from P. aeruginosa (Labeled as PA LpxC Enzyme IC50):
At the end of 1 hour, 5 ul of 1 N HCl was added to stop the enzyme reaction, the plates were centrifuged, and then processed with the BioTrove Rapidfire HTMS Mass Spectrometry System. A no-enzyme control was used in calculating the IC50 values from the percent conversion values.

Row | Structure (SMILES) | MIC [1] [µg/mL] | MIC [2] [µg/mL] | MIC [3] [µg/mL] | pIC50 ([4]; Table 3, read-out: PA:IC50) | pIC50 ([4]; PA:IC50, Table 3)
1 | CC(CCn1cc(F)c(-c2ccc(CCC#N)cc2)cc1=O)(C(=O)NO)S(C)(=O)=O (centres unmarked) [Example 77, 4-{4-[4-(2-cyanoethyl)phenyl]-5-fluoro-2-oxopyridin-1(2H)-yl}-N-hydroxy-2-methyl-2-(methylsulfonyl)butanamide] | > 64 | 4 (≈ 9.19 µM) | 32 (≈ 73.5 µM) | 8.59 | 
2 | COc1ccccc1-c1cc(=O)n(CCC(C)(C(=O)NO)S(C)(=O)=O)cc1F (centres unmarked) [Example 125, 4-[5-fluoro-4-(2-methoxyphenyl)-2-oxopyridin-1(2H)-yl]-N-hydroxy-2-methyl-2-(methylsulfonyl)butanamide] | > 64 | 8 (≈ 19.4 µM) | 64 (≈ 155 µM) | 7.89 | 
3 | CCOc1cc(-c2cc(=O)n(CCC(C)(C(=O)NO)S(C)(=O)=O)cc2F)ccn1 (centres unmarked) [Example 92, 4-(2′-ethoxy-5-fluoro-2-oxo-4,4′-bipyridin-1(2H)-yl)-N-hydroxy-2-methyl-2-(methylsulfonyl)butanamide] | > 64 | 8 (≈ 18.7 µM) | 8 (≈ 18.7 µM) | 8.24 | 
4 | CC(CCn1cc(F)c(-c2ccc3c(c2)C(=O)NC3)cc1=O)(C(=O)NO)S(C)(=O)=O (centres unmarked) [Example 50, 4-[5-fluoro-2-oxo-4-(3-oxo-2,3-dihydro-1H-isoindol-5-yl)pyridin-1(2H)-yl]-N-hydroxy-2-methyl-2-(methylsulfonyl)butanamide] | > 64 | > 64 | > 64 | 7.17 | 
5 | CC(CCn1cc(F)c(-c2cccc(CC(N)=O)c2)cc1=O)(C(=O)NO)S(C)(=O)=O (centres unmarked) [Example 123, 4-{4-[3-(2-amino-2-oxoethyl)phenyl]-5-fluoro-2-oxopyridin-1(2H)-yl}-N-hydroxy-2-methyl-2-(methylsulfonyl)butanamide] | > 64 | > 64 | > 64 |  | 
6 | CC(CCn1cc(F)c(-c2ccc(Cl)cn2)cc1=O)(C(=O)NO)S(C)(=O)=O (centres unmarked) [Example 90, 4-(5-chloro-5′-fluoro-2′-oxo-2,4′-bipyridin-1′(2′H)-yl)-N-hydroxy-2-methyl-2-(methylsulfonyl)butanamide] | > 64 | 16 (≈ 38.3 µM) | 64 (≈ 153 µM) | 7.90 | 
7 | CC(CCn1cc(F)c(-c2ccccc2)cc1=O)(C(=O)NO)S(C)(=O)=O (centres unmarked) [Example 78, 4-(5-fluoro-2-oxo-4-phenylpyridin-1(2H)-yl)-N-hydroxy-2-methyl-2-(methylsulfonyl)butanamide] | > 64 | 1 (≈ 2.61 µM) | 4 (≈ 10.5 µM) |  | 8.55
8 | CC(CCn1cc(F)c(-c2cccc(CO)c2F)cc1=O)(C(=O)NO)S(C)(=O)=O (centres unmarked) [Example 122, 4-{5-fluoro-4-[2-fluoro-3-(hydroxymethyl)phenyl]-2-oxopyridin-1(2H)-yl}-N-hydroxy-2-methyl-2-(methylsulfonyl)butanamide] |  |  |  | 8.62 | 
9 | CN(C)Cc1ccc(-c2cc(=O)n(CCC(C)(C(=O)NO)S(C)(=O)=O)cc2F)cc1 (centres unmarked) [Example 79, 4-[4-{4-[(dimethylamino)methyl]phenyl}-5-fluoro-2-oxopyridin-1(2H)-yl]-N-hydroxy-2-methyl-2-(methylsulfonyl)butanamide] | > 64 | 16 (≈ 36.4 µM) | > 64 | 7.44 | 
10 | CC(CCn1cc(F)c(-c2cc[nH]n2)cc1=O)(C(=O)NO)S(C)(=O)=O (centres unmarked) [Example 121, 4-[5-fluoro-2-oxo-4-(1H-pyrazol-3-yl)pyridin-1(2H)-yl]-N-hydroxy-2-methyl-2-(methylsulfonyl)butanamide] | > 64 | > 64 | > 64 |  | 
11 | CC(CCn1cc(F)c(-c2ccc(F)c(CO)c2)cc1=O)(C(=O)NO)S(C)(=O)=O (centres unmarked) [Example 105, 4-{5-fluoro-4-[4-fluoro-3-(hydroxymethyl)phenyl]-2-oxopyridin-1(2H)-yl}-N-hydroxy-2-methyl-2-(methylsulfonyl)butanamide] | > 64 | > 64 | > 64 |  | 
